According to ChEMBL document CHEMBL1123416, “Imidazo[2,1-b]benzothiazoles. 2. New immunosuppressive agents” (1986):

Assays:
Mus musculus [1] = assay: Significant suppressive activity of delayed type hypersensitivity (DTH) with out inhibition of humoral immunity in mice by oral administration at dose of 400 mg/kg; format: functional
Mus musculus [2] = assay: Significant suppressive activity of delayed type hypersensitivity (DTH) with out inhibition of humoral immunity in mice by oral administration at dose of 50 mg/kg; format: functional

SMILES: O=[N+]([O-])c1ccc(-c2cn3c(n2)sc2ccccc23)cc1
- Increase in ear thickness (Mus musculus [1]): 5 1/100mm
- inhibition in vivo at 400 mg/kg (Mus musculus [1]): 27.5%
- Increase in ear thickness (Mus musculus [2]): 5.4 1/100mm
- inhibition in vivo at 50 mg/kg (Mus musculus [2]): 21.7%

SMILES: Cc1ccc2c(c1)sc1nc(-c3cccc(O)c3)cn12
- Increase in ear thickness (Mus musculus [1]): 3.8 1/100mm
- inhibition in vivo at 400 mg/kg (Mus musculus [1]): 5%
- Increase in ear thickness (Mus musculus [2]): 4.5 1/100mm
- inhibition in vivo at 50 mg/kg (Mus musculus [2]): -12.5%

SMILES: Ic1ccc(-c2cn3c(n2)sc2ccccc23)cc1
- Increase in ear thickness (Mus musculus [1]): 5.3 1/100mm
- inhibition in vivo at 400 mg/kg (Mus musculus [1]): -1.9%
- Increase in ear thickness (Mus musculus [2]): 6.4 1/100mm
- inhibition in vivo at 50 mg/kg (Mus musculus [2]): -23.1%

SMILES: COc1ccc(-c2cn3c(n2)sc2ccccc23)cc1O
- Increase in ear thickness (Mus musculus [1]): 4.6 1/100mm
- inhibition in vivo at 400 mg/kg (Mus musculus [1]): 13.2%
- Increase in ear thickness (Mus musculus [2]): 4.9 1/100mm
- inhibition in vivo at 50 mg/kg (Mus musculus [2]): 7.5%

SMILES: O=[N+]([O-])c1cccc(-c2cn3c(n2)sc2ccccc23)c1
- Increase in ear thickness (Mus musculus [1]): 2.1 1/100mm
- inhibition in vivo at 400 mg/kg (Mus musculus [1]): 60.4%
- Increase in ear thickness (Mus musculus [2]): 3.2 1/100mm
- inhibition in vivo at 50 mg/kg (Mus musculus [2]): 39.6%

SMILES: Cc1c(-c2cccc(O)c2)nc2sc3ccccc3n12
- Increase in ear thickness (Mus musculus [1]): 3.6 1/100mm
- inhibition in vivo at 400 mg/kg (Mus musculus [1]): 16.3%
- Increase in ear thickness (Mus musculus [2]): 3.9 1/100mm
- inhibition in vivo at 50 mg/kg (Mus musculus [2]): 9.3%

SMILES: Oc1cccc(-c2cn3c(nc4ccccc43)s2)c1
- Increase in ear thickness (Mus musculus [1]): 3.8 1/100mm
- inhibition in vivo at 400 mg/kg (Mus musculus [1]): 7.3%
- Increase in ear thickness (Mus musculus [2]): 2.3 1/100mm
- inhibition in vivo at 50 mg/kg (Mus musculus [2]): 43.9%

SMILES: Oc1ccccc1-c1cn2c(n1)sc1ccccc12
- Increase in ear thickness (Mus musculus [1]): 1.4 1/100mm
- inhibition in vivo at 400 mg/kg (Mus musculus [1]): 65%
- Increase in ear thickness (Mus musculus [2]): 3.5 1/100mm
- inhibition in vivo at 50 mg/kg (Mus musculus [2]): 12.5%

SMILES: COc1ccc2c(c1)sc1nc(-c3cccc(O)c3)cn12
- Increase in ear thickness (Mus musculus [1]): 4.9 1/100mm
- inhibition in vivo at 400 mg/kg (Mus musculus [1]): -22.5%
- Increase in ear thickness (Mus musculus [2]): 4.8 1/100mm
- inhibition in vivo at 50 mg/kg (Mus musculus [2]): -20%

SMILES: COc1ccc(-c2cn3c(n2)sc2ccccc23)cc1
- Increase in ear thickness (Mus musculus [1]): 4.6 1/100mm
- inhibition in vivo at 400 mg/kg (Mus musculus [1]): 11.5%
- Increase in ear thickness (Mus musculus [2]): 5.3 1/100mm
- inhibition in vivo at 50 mg/kg (Mus musculus [2]): -1.9%

SMILES: Brc1ccc(-c2cn3c(n2)sc2ccccc23)cc1
- Increase in ear thickness (Mus musculus [1]): 4.9 1/100mm
- inhibition in vivo at 400 mg/kg (Mus musculus [1]): 5.8%
- Increase in ear thickness (Mus musculus [2]): 5.5 1/100mm
- inhibition in vivo at 50 mg/kg (Mus musculus [2]): -5.8%

SMILES: N#Cc1cccc(-c2cn3c(n2)sc2ccccc23)c1
- Increase in ear thickness (Mus musculus [1]): 4.7 1/100mm
- inhibition in vivo at 400 mg/kg (Mus musculus [1]): -46.9%
- Increase in ear thickness (Mus musculus [2]): 3 1/100mm
- inhibition in vivo at 50 mg/kg (Mus musculus [2]): 6.3%

SMILES: O=[N+]([O-])c1cc(-c2cn3c(n2)sc2ccccc23)ccc1O
- Increase in ear thickness (Mus musculus [1]): 4.2 1/100mm
- inhibition in vivo at 400 mg/kg (Mus musculus [1]): 20.8%
- Increase in ear thickness (Mus musculus [2]): 4.1 1/100mm
- inhibition in vivo at 50 mg/kg (Mus musculus [2]): 22.6%

SMILES: Clc1cccc(-c2cn3c(n2)sc2ccccc23)c1
- Increase in ear thickness (Mus musculus [1]): 5.8 1/100mm
- inhibition in vivo at 400 mg/kg (Mus musculus [1]): -11.5%
- Increase in ear thickness (Mus musculus [2]): 5 1/100mm
- inhibition in vivo at 50 mg/kg (Mus musculus [2]): 3.8%

SMILES: Oc1ccc(-c2cn3c(n2)sc2ccccc23)cc1
- Increase in ear thickness (Mus musculus [1]): 3.6 1/100mm
- inhibition in vivo at 400 mg/kg (Mus musculus [1]): 40.9%
- Increase in ear thickness (Mus musculus [2]): 3.4 1/100mm
- inhibition in vivo at 50 mg/kg (Mus musculus [2]): 44.2%

SMILES: Fc1ccc(-c2cn3c(n2)sc2ccccc23)cc1
- Increase in ear thickness (Mus musculus [1]): 5.9 1/100mm
- inhibition in vivo at 400 mg/kg (Mus musculus [1]): -13.5%
- Increase in ear thickness (Mus musculus [2]): 5 1/100mm
- inhibition in vivo at 50 mg/kg (Mus musculus [2]): -3.8%

SMILES: Oc1cccc(-c2cn3c(n2)sc2cc(O)ccc23)c1
- Increase in ear thickness (Mus musculus [1]): 2.4 1/100mm
- inhibition in vivo at 400 mg/kg (Mus musculus [1]): 41.5%
- Increase in ear thickness (Mus musculus [2]): 2.3 1/100mm
- inhibition in vivo at 50 mg/kg (Mus musculus [2]): 43.9%

SMILES: CS(=O)(=O)Nc1cccc(-c2cn3c(n2)sc2ccccc23)c1
- Increase in ear thickness (Mus musculus [1]): 3.6 1/100mm
- inhibition in vivo at 400 mg/kg (Mus musculus [1]): 32.1%
- Increase in ear thickness (Mus musculus [2]): 3.8 1/100mm
- inhibition in vivo at 50 mg/kg (Mus musculus [2]): 28.3%
